# pIC50: −log10 of the molar value.
# Columns and labels:
# Experiment in all cases: cells
# Type in all cases: functional, cell-based, Homo sapiens
# EW-1 = details: Homo sapiens, EW-1
# Description: SANGER: Inhibition of human EW-1 cell growth in a cell viability assay.
# RPMI-8226 = details: Homo sapiens, RPMI-8226
# Description: SANGER: Inhibition of human RPMI-8226 cell growth in a cell viability assay.
# D-263MG = details: Homo sapiens, D-263MG
# Description: SANGER: Inhibition of human D-263MG cell growth in a cell viability assay.
# A704 = details: Homo sapiens, A704;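 note: growth inhibition of human A704 cells, read out with a cell viability assay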
# Description: SANGER: Inhibition of human A704 cell growth in a cell viability assay.
# IST-MES1 = details: Homo sapiens, IST-MES1;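 note: growth inhibition of IST-MES1 cells, measured with a cell viability assay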
# Description: SANGER: Inhibition of human IST-MES1 cell growth in a cell viability assay.
# QIMR-WIL = details: Homo sapiens, QIMR-WIL;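 note: growth inhibition of QIMR-WIL cells, read out with a cell viability assay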
# Description: SANGER: Inhibition of human QIMR-WIL cell growth in a cell viability assay.
# OS-RC-2 = details: Homo sapiens, OS-RC-2;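 note: growth inhibition of human OS-RC-2 cells, measured by a cell viability assay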
# Description: SANGER: Inhibition of human OS-RC-2 cell growth in a cell viability assay.
# TE-6 = details: Homo sapiens, TE-6;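 note: growth inhibition of TE-6 cells, read out with a cell viability assay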
# Description: SANGER: Inhibition of human TE-6 cell growth in a cell viability assay.
# HT-144 = details: Homo sapiens, HT-144
# Description: SANGER: Inhibition of human HT-144 cell growth in a cell viability assay.
# RKO = details: Homo sapiens, RKO;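 note: growth inhibition of human RKO cells, read out with a cell viability assay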
# Description: SANGER: Inhibition of human RKO cell growth in a cell viability assay.
# EOL1 = details: Homo sapiens, EOL1;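 note: growth inhibition of EoL-1 cells, read out by a cell viability assay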
# Description: SANGER: Inhibition of human EoL-1-cell cell growth in a cell viability assay.
# MFM-223 = details: Homo sapiens, MFM-223
# Description: SANGER: Inhibition of human MFM-223 cell growth in a cell viability assay.
# PSN1 = details: Homo sapiens, PSN1;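 note: suppression of growth of human PSN1 cells, read out by a cell viability assay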
# Description: SANGER: Inhibition of human PSN1 cell growth in a cell viability assay.
# GT3TKB = details: Homo sapiens, GT3TKB;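 note: growth inhibition of the cell line, read out with a cell viability assay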
# Description: SANGER: Inhibition of human GT3TKB cell growth in a cell viability assay.
# NCI-H1770 = details: Homo sapiens, NCI-H1770;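 note: growth inhibition of NCI-H1770 cells determined with a viability readout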
# Description: SANGER: Inhibition of human NCI-H1770 cell growth in a cell viability assay.
# SW 962 = details: Homo sapiens, SW 962;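 note: growth inhibition of human SW962 cells, read out by a cell viability assay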
# Description: SANGER: Inhibition of human SW962 cell growth in a cell viability assay.
# KG-1 = details: Homo sapiens, KG-1;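 note: growth inhibition of KG-1 cells, read out by a cell viability assay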
# Description: SANGER: Inhibition of human KG-1 cell growth in a cell viability assay.
# D-392MG = details: Homo sapiens, D-392MG
# OCI-AML2 = details: Homo sapiens, OCI-AML2;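 note: growth inhibition of OCI-AML2 cells, read out with a cell viability assay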
# Description: SANGER: Inhibition of human OCI-AML2 cell growth in a cell viability assay.
# CW-2 = details: Homo sapiens, CW-2;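 note: growth inhibition of CW-2 cells, read out by a cell viability assay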
# Description: SANGER: Inhibition of human CW-2 cell growth in a cell viability assay.
# LXF-289 cell line = details: Homo sapiens, LXF-289
# Description: SANGER: Inhibition of human LXF-289 cell growth in a cell viability assay.
# EW-13 = details: Homo sapiens, EW-13;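 note: growth inhibition of EW-13 cells, read out with a cell viability assay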
# Description: SANGER: Inhibition of human EW-13 cell growth in a cell viability assay.
# KINGS-1 = details: Homo sapiens, KINGS-1;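 note: cell viability assay measuring suppression of KINGS-1 cell growth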
# Description: SANGER: Inhibition of human KINGS-1 cell growth in a cell viability assay.
# GI-ME-N = details: Homo sapiens, GI-ME-N;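 note: growth inhibition of human GI-ME-N cells, read out with a cell viability assay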
# Description: SANGER: Inhibition of human GI-ME-N cell growth in a cell viability assay.
# LAMA-84 = details: Homo sapiens, LAMA-84;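 note: growth inhibition of LAMA-84 cells, read out with a cell viability assay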
# Description: SANGER: Inhibition of human LAMA-84 cell growth in a cell viability assay.
# BB65-RCC = details: Homo sapiens, BB65-RCC;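 note: growth inhibition of the cell line, measured with a cell viability assay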
# Description: SANGER: Inhibition of human BB65-RCC cell growth in a cell viability assay.
# CTV-1 = details: Homo sapiens, CTV-1;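 note: growth inhibition of the cell line, read out with a cell viability assay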
# Description: SANGER: Inhibition of human CTV-1 cell growth in a cell viability assay.
# MOLT-4 = details: Homo sapiens, MOLT-4;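 note: growth inhibition of MOLT-4 cells, determined with a cell viability readout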
# Description: SANGER: Inhibition of human MOLT-4 cell growth in a cell viability assay.
# DEL = details: Homo sapiens, DEL;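 note: growth inhibition of the human DEL cell line, read out with a cell viability assay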
# Description: SANGER: Inhibition of human DEL cell growth in a cell viability assay.
# KURAMOCHI = details: Homo sapiens, KURAMOCHI;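 note: growth inhibition of KURAMOCHI cells, read out with a cell viability assay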
# Description: SANGER: Inhibition of human KURAMOCHI cell growth in a cell viability assay.
# MLMA = details: Homo sapiens, MLMA;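 note: growth inhibition of MLMA cells (human), determined through a cell viability readout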
# Description: SANGER: Inhibition of human MLMA cell growth in a cell viability assay.
# SW982 = details: Homo sapiens, SW982;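 note: growth inhibition of SW982 cells, read out with a cell viability assay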
# Description: SANGER: Inhibition of human SW982 cell growth in a cell viability assay.
# J-RT3-T3-5 = details: Homo sapiens, J-RT3-T3-5;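 note: cell viability assay measuring growth inhibition of human J-RT3-T3-5 cells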
# Description: SANGER: Inhibition of human J-RT3-T3-5 cell growth in a cell viability assay.
# SCC-15 = details: Homo sapiens, SCC-15;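 note: growth inhibition of SCC-15 cells, read out with a cell viability assay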
# Description: SANGER: Inhibition of human SCC-15 cell growth in a cell viability assay.
# BT-474 = details: Homo sapiens, BT-474
# Description: SANGER: Inhibition of human BT-474 cell growth in a cell viability assay.
# NB13 = details: Homo sapiens, NB13;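 note: cell viability readout measuring growth inhibition of human NB13 cells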
# Description: SANGER: Inhibition of human NB13 cell growth in a cell viability assay.
# A101D = details: Homo sapiens, A101D;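 note: growth inhibition of the cell line, measured with a viability assay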
# Description: SANGER: Inhibition of human A101D cell growth in a cell viability assay.
# MHH-PREB-1 = details: Homo sapiens, MHH-PREB-1;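 note: cell viability assay measuring inhibition of proliferation of human MHH-PREB-1 cells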
# Description: SANGER: Inhibition of human MHH-PREB-1 cell growth in a cell viability assay.
# SNU-C2B = details: Homo sapiens, SNU-C2B;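 note: cell viability readout used to measure compound-driven suppression of SNU-C2B cell proliferation, IC50 marking half-maximal growth inhibition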
# Description: SANGER: Inhibition of human SNU-C2B cell growth in a cell viability assay.
# NCI-H1355 = details: Homo sapiens, NCI-H1355;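 note: growth inhibition of human NCI-H1355 cells, read out by a cell viability assay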
# Description: SANGER: Inhibition of human NCI-H1355 cell growth in a cell viability assay.
# SK-NEP-1 = details: Homo sapiens, SK-NEP-1;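 note: growth inhibition of human SK-NEP-1 cells, read out by a cell viability assay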
# Description: SANGER: Inhibition of human SK-NEP-1 cell growth in a cell viability assay.
# Becker = details: Homo sapiens, Becker;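 note: growth inhibition of Becker cells, read out with a cell viability assay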
# Description: SANGER: Inhibition of human Becker cell growth in a cell viability assay.
# MS-1 = details: Homo sapiens, MS-1
# Description: SANGER: Inhibition of human MS-1 cell growth in a cell viability assay.
# EKVX = details: Homo sapiens, EKVX;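 note: growth inhibition of human EKVX cells, read out with a cell viability assay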
# Description: SANGER: Inhibition of human EKVX cell growth in a cell viability assay.
# SK-LMS-1 = details: Homo sapiens, SK-LMS-1;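 note: growth inhibition of human SK-LMS-1 cells, read out with a cell viability assay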
# Description: SANGER: Inhibition of human SK-LMS-1 cell growth in a cell viability assay.
# HOP-62 = details: Homo sapiens, HOP-62;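 note: cell growth inhibition determined with a viability assay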
# Description: SANGER: Inhibition of human HOP-62 cell growth in a cell viability assay.
# LB373-MEL-D = details: Homo sapiens, LB373-MEL-D;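 note: growth inhibition of the cell line, read out in a cell viability assay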
# Description: SANGER: Inhibition of human LB373-MEL-D cell growth in a cell viability assay.
# KMOE-2 = details: Homo sapiens, KMOE-2;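 note: growth inhibition of human KMOE-2 cells, read out with a cell viability assay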
# Description: SANGER: Inhibition of human KMOE-2 cell growth in a cell viability assay.
# DMS-79 = details: Homo sapiens, DMS-79;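 note: growth inhibition measured with a cell viability assay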
# Description: SANGER: Inhibition of human DMS-79 cell growth in a cell viability assay.
compound,measurement,setting,value
COc1cc2c(Nc3ccc(NC(=O)c4ccccc4)cc3)ncnc2cc1OCCCN1CCOCC1,pIC50,EW-1,< 5.40
same,pIC50,RPMI-8226,< 5.40
same,pIC50,D-263MG,5.57
same,pIC50,A704,< 5.40
same,pIC50,IST-MES1,< 5.40
same,pIC50,QIMR-WIL,5.69
same,pIC50,OS-RC-2,< 5.40
same,pIC50,TE-6,< 5.40
same,pIC50,HT-144,< 5.40
same,pIC50,RKO,6.15
same,pIC50,EOL1,6.73
same,pIC50,MFM-223,< 5.40
same,pIC50,PSN1,< 5.40
same,pIC50,GT3TKB,< 5.40
same,pIC50,NCI-H1770,< 5.40
same,pIC50,SW 962,< 5.40
same,pIC50,KG-1,5.49
same,pIC50,D-392MG,< 5.40
same,pIC50,OCI-AML2,5.43
same,pIC50,CW-2,< 5.40
same,pIC50,LXF-289 cell line,5.59
same,pIC50,EW-13,< 5.40
same,pIC50,KINGS-1,< 5.40
same,pIC50,GI-ME-N,< 5.40
same,pIC50,LAMA-84,5.76
same,pIC50,BB65-RCC,< 5.40
same,pIC50,CTV-1,5.68
same,pIC50,MOLT-4,6.05
same,pIC50,DEL,5.56
same,pIC50,KURAMOCHI,< 5.40
same,pIC50,MLMA,< 5.40
same,pIC50,SW982,< 5.40
same,pIC50,J-RT3-T3-5,< 5.40
same,pIC50,SCC-15,5.43
same,pIC50,BT-474,< 5.40
same,pIC50,NB13,< 5.40
same,pIC50,A101D,< 5.40
same,pIC50,MHH-PREB-1,< 5.40
same,pIC50,SNU-C2B,< 5.40
same,pIC50,NCI-H1355,< 5.40
same,pIC50,SK-NEP-1,5.86
same,pIC50,Becker,< 5.40
same,pIC50,MS-1,< 5.40
same,pIC50,EKVX,< 5.40
CC(C)c1ccccc1Cc1cc(C(=O)Nc2ccc(S(=O)(=O)c3ccccc3C(C)(C)C)cc2)c(O)c(O)c1O,pIC50,EW-1,6.64
same,pIC50,D-263MG,6.55
same,pIC50,SK-LMS-1,6.57
same,pIC50,IST-MES1,6.67
same,pIC50,OS-RC-2,6.13
same,pIC50,TE-6,4.61
same,pIC50,HT-144,6.82
same,pIC50,RKO,7.82
same,pIC50,MFM-223,6.07
same,pIC50,PSN1,6.78
same,pIC50,GT3TKB,6.52
same,pIC50,SW 962,6.42
same,pIC50,D-392MG,5.85
same,pIC50,CW-2,6.35
same,pIC50,LXF-289 cell line,7.14
same,pIC50,KINGS-1,5.56
same,pIC50,GI-ME-N,6.39
same,pIC50,BB65-RCC,6.87
same,pIC50,KURAMOCHI,5.71
same,pIC50,MLMA,6.73
same,pIC50,HOP-62,6.44
same,pIC50,SW982,6.96
same,pIC50,SCC-15,6.65
same,pIC50,BT-474,5.41
same,pIC50,NB13,6.80
same,pIC50,A101D,7.06
same,pIC50,SNU-C2B,6.59
same,pIC50,NCI-H1355,5.89
same,pIC50,Becker,6.62
same,pIC50,LB373-MEL-D,6.37
same,pIC50,EKVX,5.15
CC1(C)CNc2cc(NC(=O)c3cccnc3NCc3ccncc3)ccc21 [MOTESANIB],pIC50,EW-1,< 5.70
same,pIC50,RPMI-8226,< 5.70
same,pIC50,D-263MG,< 5.70
same,pIC50,A704,< 5.70
same,pIC50,IST-MES1,< 5.70
same,pIC50,QIMR-WIL,< 5.70
same,pIC50,OS-RC-2,< 5.70
same,pIC50,TE-6,< 5.70
same,pIC50,HT-144,< 5.70
same,pIC50,RKO,< 5.70
same,pIC50,EOL1,> 8.11
same,pIC50,MFM-223,< 5.70
same,pIC50,PSN1,< 5.70
same,pIC50,GT3TKB,< 5.70
same,pIC50,NCI-H1770,< 5.70
same,pIC50,SW 962,< 5.70
same,pIC50,KG-1,< 5.70
same,pIC50,D-392MG,< 5.70
same,pIC50,OCI-AML2,< 5.70
same,pIC50,CW-2,< 5.70
same,pIC50,LXF-289 cell line,< 5.70
same,pIC50,EW-13,< 5.70
same,pIC50,KINGS-1,< 5.70
same,pIC50,GI-ME-N,< 5.70
same,pIC50,LAMA-84,< 5.70
same,pIC50,BB65-RCC,< 5.70
same,pIC50,CTV-1,< 5.70
same,pIC50,MOLT-4,< 5.70
same,pIC50,DEL,< 5.70
same,pIC50,KURAMOCHI,< 5.70
same,pIC50,MLMA,< 5.70
same,pIC50,SW982,< 5.70
same,pIC50,J-RT3-T3-5,< 5.70
same,pIC50,SCC-15,< 5.70
same,pIC50,BT-474,< 5.70
same,pIC50,NB13,< 5.70
same,pIC50,A101D,< 5.70
same,pIC50,MHH-PREB-1,< 5.70
same,pIC50,SNU-C2B,< 5.70
same,pIC50,NCI-H1355,< 5.70
same,pIC50,SK-NEP-1,< 5.70
same,pIC50,Becker,< 5.70
same,pIC50,MS-1,< 5.70
same,pIC50,EKVX,< 5.70
N[C@@H](CSC(c1ccccc1)(c1ccccc1)c1ccccc1)C(=O)O [S-TRITYL-L-CYSTEINE],pIC50,EW-1,5.82
same,pIC50,RPMI-8226,5.89
same,pIC50,D-263MG,< 5.29
same,pIC50,SK-LMS-1,< 5.29
same,pIC50,A704,< 5.29
same,pIC50,IST-MES1,< 5.29
same,pIC50,QIMR-WIL,< 5.29
same,pIC50,OS-RC-2,< 5.29
same,pIC50,TE-6,5.41
same,pIC50,HT-144,6.51
same,pIC50,RKO,6.17
same,pIC50,EOL1,5.93
same,pIC50,MFM-223,< 5.29
same,pIC50,PSN1,5.83
same,pIC50,GT3TKB,6.55
same,pIC50,NCI-H1770,< 5.29
same,pIC50,SW 962,5.94
same,pIC50,KG-1,< 5.29
same,pIC50,OCI-AML2,5.38
same,pIC50,CW-2,< 5.29
same,pIC50,LXF-289 cell line,6.01
same,pIC50,EW-13,< 5.29
same,pIC50,KINGS-1,5.67
same,pIC50,GI-ME-N,5.64
same,pIC50,LAMA-84,5.50
same,pIC50,BB65-RCC,5.62
same,pIC50,CTV-1,6.10
same,pIC50,MOLT-4,5.37
same,pIC50,DEL,5.85
same,pIC50,KURAMOCHI,< 5.29
same,pIC50,MLMA,5.34
same,pIC50,HOP-62,5.53
same,pIC50,SW982,5.97
same,pIC50,J-RT3-T3-5,6.01
same,pIC50,SCC-15,< 5.29
same,pIC50,BT-474,< 5.29
same,pIC50,NB13,5.70
same,pIC50,KMOE-2,< 5.29
same,pIC50,A101D,5.76
same,pIC50,MHH-PREB-1,< 5.29
same,pIC50,DMS-79,< 5.29
same,pIC50,SNU-C2B,5.89
same,pIC50,NCI-H1355,6.03
same,pIC50,SK-NEP-1,5.73
same,pIC50,Becker,6.21
same,pIC50,MS-1,5.61
same,pIC50,LB373-MEL-D,5.55
same,pIC50,EKVX,< 5.29
CCN(CC)CCNC(=O)c1c(C)[nH]c(/C=C2\C(=O)Nc3ccc(F)cc32)c1C [SUNITINIB],pIC50,EW-1,5.33
same,pIC50,RPMI-8226,5.12
same,pIC50,D-263MG,< 5.10
same,pIC50,SK-LMS-1,5.42
same,pIC50,A704,< 5.10
same,pIC50,IST-MES1,< 5.10
same,pIC50,QIMR-WIL,5.44
same,pIC50,OS-RC-2,5.31
same,pIC50,TE-6,< 5.10
same,pIC50,HT-144,< 5.10
same,pIC50,RKO,< 5.10
same,pIC50,EOL1,> 7.51
same,pIC50,MFM-223,< 5.10
same,pIC50,PSN1,5.82
same,pIC50,GT3TKB,5.18
same,pIC50,NCI-H1770,< 5.10
same,pIC50,SW 962,< 5.10
same,pIC50,KG-1,5.22
same,pIC50,OCI-AML2,5.86
same,pIC50,CW-2,< 5.10
same,pIC50,LXF-289 cell line,5.56
same,pIC50,EW-13,< 5.10
same,pIC50,KINGS-1,< 5.10
same,pIC50,GI-ME-N,< 5.10
same,pIC50,LAMA-84,5.57
same,pIC50,BB65-RCC,< 5.10
same,pIC50,CTV-1,5.76
same,pIC50,MOLT-4,5.47
same,pIC50,DEL,5.68
same,pIC50,KURAMOCHI,< 5.10
same,pIC50,MLMA,< 5.10
same,pIC50,HOP-62,5.36
same,pIC50,SW982,5.34
same,pIC50,J-RT3-T3-5,5.22
same,pIC50,SCC-15,< 5.10
same,pIC50,BT-474,< 5.10
same,pIC50,NB13,< 5.10
same,pIC50,KMOE-2,< 5.10
same,pIC50,A101D,5.56
same,pIC50,MHH-PREB-1,5.27
same,pIC50,DMS-79,< 5.10
same,pIC50,SNU-C2B,< 5.10
same,pIC50,NCI-H1355,5.13
same,pIC50,SK-NEP-1,5.58
same,pIC50,Becker,< 5.10
same,pIC50,MS-1,5.42
same,pIC50,LB373-MEL-D,< 5.10
same,pIC50,EKVX,< 5.10

# From ChEMBL document CHEMBL1201861, “Genomics of Drug Sensitity in Cancer screening data, Wellcome Trust Sanger Institute”
